Laboratory results reported in patent publication US9499538B2, “Estrogen receptor modulators and uses thereof” (Seragon Pharmaceuticals, Inc., priority 2012, dated 2016).

Assays:
[1] = biological target: T1, ER-α in MCF-7 cells (Homo sapiens, UniProt P03372); assay: Breast Cancer Cell ER-α In Cell Western Assay (SP1); type: cell-based; details: 4 or 24 hr post compound addition; for Emax: MCF7, SP1 antibody, read-out: ER-α In Cell Western Assay (SP1) Max Response; for DC50: SP1 antibody, read-out: ER-α In Cell Western Assay (SP1) IC50
T1 construct: endogenous in cells; host or cells: MCF-7
T1 sequence (P03372 1-595): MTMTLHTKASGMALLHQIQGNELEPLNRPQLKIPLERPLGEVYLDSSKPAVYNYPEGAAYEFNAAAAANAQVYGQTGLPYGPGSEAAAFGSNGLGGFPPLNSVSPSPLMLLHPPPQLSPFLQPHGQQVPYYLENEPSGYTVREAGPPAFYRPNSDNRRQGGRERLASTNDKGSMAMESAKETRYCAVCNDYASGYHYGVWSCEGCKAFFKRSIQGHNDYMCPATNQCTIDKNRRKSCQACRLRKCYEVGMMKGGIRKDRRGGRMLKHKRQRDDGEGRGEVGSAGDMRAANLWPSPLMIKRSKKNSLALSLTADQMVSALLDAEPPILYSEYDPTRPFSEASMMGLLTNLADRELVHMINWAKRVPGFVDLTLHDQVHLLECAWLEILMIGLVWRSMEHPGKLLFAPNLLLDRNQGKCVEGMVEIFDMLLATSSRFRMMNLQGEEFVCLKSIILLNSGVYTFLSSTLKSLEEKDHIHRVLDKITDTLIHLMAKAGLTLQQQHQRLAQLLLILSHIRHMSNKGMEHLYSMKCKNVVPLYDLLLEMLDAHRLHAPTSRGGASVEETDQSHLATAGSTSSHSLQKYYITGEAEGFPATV
Outline: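 ER-α levels quantified by in-cell western: SP1 signal normalised to DRAQ5 DNA stain, relative to untreated cells (% ER). Compounds at 0.3–0.000003 μM final, 11-point semilog series, 4 or 24 h exposure of MCF-7 cells grown in charcoal-stripped serum.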

[2] = system: MCF-7 cells; assay: Breast Cancer Cell Viability Assays (MCF-7, CellTiter-Glo); type: cell-based; details: 5 days' compound exposure; for IC50: Homo sapiens, MCF7, 120 h
Outline: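 Percent viability, background-subtracted against untreated wells, was taken from CellTiter-Glo luminescence after 5 days' exposure of MCF-7 cells. Compounds were tested at eleven semilog concentrations, final 0.3–0.000003 μM, in RPMI containing 10% FBS.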

Row | Emax [1] | DC50 [1] | IC50 [2] | SMILES | MCF7 Viability Assay Max Response [2]
1 | ≥ 40% | ≤ 100 nM | ≤ 100 nM | COc1cc(C)c(/C(=C(\c2ccc(/C=C/C(=O)O)cc2)c2ccc3[nH]nc(F)c3c2)C2CC2)cn1 [Example 116, (E)-3-(4-((E)-2-Cyclopropyl-1-(3-fluoro-1H-indazol-5-yl)-2-(6-methoxy-4-methylpyridin-3-yl)vinyl)phenyl)acrylic acid] | ++ (++ = a single % value ≧ 40%)
2 | ≥ 40% | ≤ 100 nM | ≤ 100 nM | CC/C(=C(/c1ccc(/C=C/C(=O)O)cc1)c1ccc2[nH]nc(F)c2c1)c1ncccc1C(F)(F)F [Example 263, (E)-3-(4-((E)-1-(3-Fluoro-1H-indazol-5-yl)-2-(3-(trifluoromethyl)pyridin-2-yl)but-1-en-1-yl)phenyl)acrylic acid] | ++ (++ = a single % value ≧ 40%)
3 | ≥ 40% | ≤ 100 nM | ≤ 100 nM | Cc1cscc1/C(=C(\c1ccc(/C=C/C(=O)O)cc1)c1ccc2scnc2c1)C(C)C [Example 20, (E)-3-(4-((E)-1-(Benzo[d]thiazol-5-yl)-3-methyl-2-(4-methylthiophen-3-yl)but-1-en-1-yl)phenyl)acrylic acid] | ++ (++ = a single % value ≧ 40%)
4 | ≥ 40% | ≤ 100 nM | ≤ 100 nM | N#Cc1cccnc1/C(=C(\c1ccc(/C=C/C(=O)O)cc1)c1ccc2[nH]nc(F)c2c1)C1CCC1 [Example 247, (E)-3-(4-((E)-2-(3-Cyanopyridin-2-yl)-2-cyclobutyl-1-(3-fluoro-1H-indazol-5-yl)vinyl)phenyl)acrylic acid] | ++ (++ = a single % value ≧ 40%)
5 | ≥ 40% | > 100 nM | > 100 nM | CC/C(=C(/c1ccc(/C=C/C(=O)O)cc1)c1ccc2[nH]ncc2c1)c1ccc(C(N)=O)cc1F [Example 211, (E)-3-(4-((E)-2-(4-Carbamoyl-2-fluorophenyl)-1-(1H-indazol-5-yl)but-1-en-1-yl)phenyl)acrylic acid] | + (+ = a single % value < 40%)
6 | ≥ 40% | ≤ 100 nM | ≤ 100 nM | CSc1ccc(/C(=C(\c2ccc(/C=C/C(=O)O)cc2)c2ccc3[nH]nc(F)c3c2)C2CCC2)c(C)c1 [Example 72, (E)-3-(4-((E)-2-Cyclobutyl-1-(3-fluoro-1H-indazol-5-yl)-2-(2-methyl-4-(methylthio)phenyl)vinyl)phenyl)acrylic acid] | ++ (++ = a single % value ≧ 40%)
7 | ≥ 40% | ≤ 100 nM | ≤ 100 nM | Cc1cncc(/C(=C(\c2ccc(/C=C/C(=O)O)cc2)c2ccc3[nH]nc(F)c3c2)C2CCC2)c1 [Example 129, (E)-3-(4-((E)-2-Cyclobutyl-1-(3-fluoro-1H-indazol-5-yl)-2-(5-methylpyridin-3-yl)vinyl)phenyl)acrylic acid] | ++ (++ = a single % value ≧ 40%)
8 | ≥ 40% | ≤ 100 nM | ≤ 100 nM | COc1cncc(/C(=C(\c2ccc(/C=C/C(=O)O)cc2)c2ccc3[nH]nc(F)c3c2)C2CCC2)c1 [Example 132, (E)-3-(4-((E)-2-Cyclobutyl-1-(3-fluoro-1H-indazol-5-yl)-2-(5-methoxypyridin-3-yl)vinyl)phenyl)acrylic acid] | ++ (++ = a single % value ≧ 40%)
9 | ≥ 40% | ≤ 100 nM | ≤ 100 nM | Cc1cscc1/C(=C(\c1ccc(/C=C/C(=O)NCCO)cc1)c1ccc2scnc2c1)C1CCC1 [Example 180, (E)-3-(4-((E)-1-(Benzo[d]thiazol-5-yl)-2-cyclobutyl-2-(4-methylthiophen-3-yl)vinyl)phenyl)-N-(2-hydroxyethyl)acrylamide] | ++ (++ = a single % value ≧ 40%)
10 | ≥ 40% | ≤ 100 nM | ≤ 100 nM | N#Cc1n[nH]c2ccc(/C(=C(/c3ccccc3)C3CCC3)c3ccc(/C=C/C(=O)O)cc3)cc12 [Example 148, (E)-3-(4-((E)-1-(3-Cyano-1H-indazol-5-yl)-2-cyclobutyl-2-phenylvinyl)phenyl)acrylic acid] | ++ (++ = a single % value ≧ 40%)
11 | ≥ 40% | ≤ 100 nM | ≤ 100 nM | CC/C(=C(/c1ccc(/C=C/C(=O)O)cc1)c1ccc2[nH]nc(F)c2c1)c1ccc(OC)cc1C [Example 63, (E)-3-(4-((E)-1-(3-Fluoro-1H-indazol-5-yl)-2-(4-methoxy-2-methylphenyl)but-1-en-1-yl)phenyl)acrylic acid] | ++ (++ = a single % value ≧ 40%)
12 | ≥ 40% | ≤ 100 nM | ≤ 100 nM | COc1cc(C)c(/C(=C(\c2ccc(/C=C/C(=O)O)cc2)c2ccc3[nH]nc(F)c3c2)C2CCC2)cn1 [Example 112, (E)-3-(4-((E)-2-Cyclobutyl-1-(3-fluoro-1H-indazol-5-yl)-2-(6-methoxy-4-methylpyridin-3-yl)vinyl)phenyl)acrylic acid] | ++ (++ = a single % value ≧ 40%)
13 | ≥ 40% | ≤ 100 nM | ≤ 100 nM | O=C(O)/C=C/c1ccc(/C(=C(\c2ccc(F)cc2Cl)C2CCC2)c2coc3c(O)cccc23)cc1 [Example 212, (E)-3-(4-((E)-2-(2-Chloro-4-fluorophenyl)-2-cyclobutyl-1-(7-hydroxybenzofuran-3-yl)vinyl)phenyl)acrylic acid] | ++ (++ = a single % value ≧ 40%)
14 | ≥ 40% | ≤ 100 nM | ≤ 100 nM | O=C(O)/C=C/c1ccc(/C(=C(\c2cc(F)ccc2Cl)C2CCC2)c2ccc3scnc3c2)cc1 [Example 236, (E)-3-(4-((E)-1-(Benzo[d]thiazol-5-yl)-2-(2-chloro-5-fluorophenyl)-2-cyclobutylvinyl)phenyl)acrylic acid] | ++ (++ = a single % value ≧ 40%)
15 | ≥ 40% | ≤ 100 nM | ≤ 100 nM | O=C(O)/C=C/c1ccc(/C(=C(\c2ccccc2)C2CCC2)c2ccc3[nH]nc(F)c3c2)cc1F [Example 265, (E)-3-(4-((Z)-2-Cyclobutyl-1-(3-fluoro-1H-indazol-5-yl)-2-phenylvinyl)-2-fluorophenyl)acrylic acid] | ++ (++ = a single % value ≧ 40%)
16 | ≥ 40% | ≤ 100 nM | ≤ 100 nM | COc1c(/C(=C(/c2ccccc2)C2CCC2)c2ccc(/C=C/C(=O)O)cc2)ccc2[nH]ncc12 [Example 9, (E)-3-(4-((E)-2-Cyclobutyl-1-(4-methoxy-1H-indazol-5-yl)-2-phenylvinyl)phenyl)acrylic acid] | ++ (++ = a single % value ≧ 40%)
17 | ≥ 40% | ≤ 100 nM | ≤ 100 nM | COc1ccc(/C(=C(\c2ccc(/C=C/C(=O)O)cc2)c2ccc3[nH]nc(F)c3c2)C2CC2)c(C)c1 [Example 115, (E)-3-(4-((E)-2-Cyclopropyl-1-(3-fluoro-1H-indazol-5-yl)-2-(4-methoxy-2-methylphenyl)vinyl)phenyl)acrylic acid] | ++ (++ = a single % value ≧ 40%)
18 | ≥ 40% | ≤ 100 nM | ≤ 100 nM | COc1ccc(/C(=C(\c2ccc(/C=C/C(=O)O)cc2)c2ccc3[nH]nc(F)c3c2)C2CCC2)cn1 [Example 138, (E)-3-(4-((E)-2-Cyclobutyl-1-(3-fluoro-1H-indazol-5-yl)-2-(6-methoxypyridin-3-yl)vinyl)phenyl)acrylic acid] | ++ (++ = a single % value ≧ 40%)
19 | ≥ 40% | ≤ 100 nM | ≤ 100 nM | Fc1n[nH]c2ccc(/C(=C(/c3ccccc3)C3CCC3)c3ccc(/C=C/c4ncon4)cc3)cc12 [Example 209, 3-((E)-4-((E)-2-Cyclobutyl-1-(3-fluoro-1H-indazol-5-yl)-2-phenylvinyl)styryl)-1,2,4-oxadiazole] | + (+ = a single % value < 40%)
20 | ≥ 40% | ≤ 100 nM | ≤ 100 nM | CS(=O)(=O)c1cc(Cl)ccc1/C(=C(\c1ccc(/C=C/C(=O)O)cc1)c1ccc2[nH]nc(F)c2c1)C1CCC1 [Example 282, (E)-3-(4-((E)-2-(4-Chloro-2-(methylsulfonyl)phenyl)-2-cyclobutyl-1-(3-fluoro-1H-indazol-5-yl)vinyl)phenyl)acrylic acid] | ++ (++ = a single % value ≧ 40%)
